“And” between values parts separate entries of the source, which are not always exact repeats. Equal entries are not always repeated.
Key:
P2Y12 receptor [1] = target: T1, P2Y12 receptor (Homo sapiens, UniProt Q9H244); experiment: Human P2Y12 recombinant cell membrane binding assay with 33P 2MeS-ADP (Assay 3); design: expressed in transfected cells; host or cells: HEK cells; details: highest concentration tested 1 μM; read-out: [33P]-2MeS-ADP Binding to Recombinant Human P2Y12 Membranes (Assay 3) % Inhibition
P2Y12 receptor [2] = target: T1, P2Y12 receptor; experiment: as above; design: expressed in transfected cells; host or cells: HEK cells; details: for IC50 / Ki: HEK cell membranes expressing P2Y12, multiple lines = multiple runs; for [33P]-2MeS-ADP Binding to Recombinant Human P2Y12 Membranes (Assay 3) % Inhibition / inhibition at 10 µM: highest concentration tested 10 μM; for inhibition at 10 µM: read-out: [33P]-2MeS-ADP Binding to Recombinant Human P2Y12 Membranes (Assay 3) % Inhibition
Method: 3. Human P2Y12 Recombinant Cell Membrane Binding Assay with ^33P 2MeS-ADP.
The ability of a test compound to bind to the P2Y12 receptor was evaluated in a recombinant cell membrane binding assay. In this competitive binding assay, the test compound competed against a radiolabelled agonist for binding to the P2Y12 receptor, expressed on the cell membrane. Inhibition of binding of the labeled material was measured and correlated to the amount and potency of the test compound. Data from this assay are presented in Table F. This binding assay is a modification of the procedure in Takasaki, J. et. al, Mol. Pharmacol., 2001, Vol. 60, pg. 432.
HEK cells were transfected with the pDONR201P2Y12 vector and cultured in MEM with GlutaMAX I, Earle's salts, 25 mM HEPES (Gibco # 42360-032) containing 10% dialyzed FBS (Gibco # 26400-044), 100 μM nonessential amino acids (Gibco # 11140-050), 1 mM sodium pyruvate (Gibco # 11360-070), 0.05% geneticin (Gibco #10131-027), 3 μg/mL blasticidin (Fluka brand from Sigma # 15205), and 0.5 μg/mL puromycin (Sigma # P-8833).
Confluent cells were washed once with cold DPBS (Gibco # 14190-136). Fresh DPBS was added and the cells were scraped and centrifuged at 500×g for 5 minutes at 4° C. The cell pellets were resuspended in TEE buffer (25 mM Tris, 5 mM EDTA, 5 mM EGTA) containing 1 protease inhibitor cocktail tablet (Roche # 1 873 580) per 50 mL (called TEE+Complete) and can be flash frozen at this point.
In one embodiment, frozen cell pellets were used to prepare the membranes. In that embodiment, the frozen cell pellets were thawed on ice. In another embodiment, cell pellets may be used without flash freezing before moving on to the next step.
Cell pellets were resuspended in TEE buffer+Complete and homogenized in a glass dounce for 12 strokes. The cell suspension was centrifuged at 500×g for 5 minutes at 4° C. The supernatant was saved and centrifuged at 20,000×g for 20 minutes at 4° C. This supernatant was discarded and the cell pellet resuspended in TEE buffer+Complete and homogenized in a glass dounce for 12 strokes. This suspension was centrifuged at 20,000×g for 20 minutes at 4° C. and the supernatant discarded. The pellet was resuspended in assay buffer (50 mM Tris, 100 mM NaCl, 1 mM EDTA) containing one protease inhibitor cocktail tablet per 50 mL, and can be flash frozen as 1 mL aliquots at this point.
Dry compounds were diluted as 10 mM DMSO stocks and tested in a seven-point, three-fold dilution series run in triplicate beginning at 10 μM, final concentration. A 1 mM DMSO intermediate stock was made in a dilution plate and from this the seven dilutions were made to 5× the final concentration in assay buffer containing 0.02% BSA.
To a polypropylene assay plate (Costar # 3365) the following were added: a) 30 μL of assay buffer containing one protease inhibitor cocktail tablet per 50 mL; b) 30 μL of 1 nM ^33P 2MeS-ADP made in assay buffer containing 0.02% BSA and 12.5 mg/mL ascorbic acid; 30 μL of cold 1.5 μM 2MeS-ADP for the positive control wells, or assay buffer containing 0.02% BSA and 12.5 mg/mL ascorbic acid for the negative control wells, or 5× drug dilution; and 60 μL of 1 ug/well membranes.
The plates were incubated at room temperature for 1 hour. The reaction was stopped using a cell harvester to transfer the reaction mixture onto GF/B UniFilter plates (Perkin Elmer # 6005177), and washed three times with wash buffer (50 mM Tris), filtering between each wash. The filter plates were dried for approximately 20 minutes in an oven at 50° C. Back seals were adhered to the filter plates and 25 uL of Microscint 20 scintillation fluid (Perkin Elmer # 6013621) were added. The filter plates were sealed, shaken for 30 minutes, and counted on a Top Count. Data were analyzed using a four-parameter curve fit with a fixed minimum and maximum experimentally defined as the average positive and negative controls on each plate, and with a hill slope equal to one.

P2Y12 receptor [3] = target: T1, P2Y12 receptor; experiment: Inhibition of [33P]2MeS-ADP binding to washed human platelet membranes (Assay 1); design: the P2Y12 receptor, which is found on the surface of platelets; tissue Interstate Blood bank, Memphis, Tenn; host or cells: human platelets from platelet rich plasma; details: for inhibition at 10 µM: highest concentration tested 10 μM; for IC50: washed human platelet membranes
Method: 1. Inhibition of [^33P]2MeS-ADP Binding to Washed Human Platelet Membranes. The ability of a test compound to bind to the P2Y12 receptor was evaluated in a platelet membrane binding assay. In this competitive binding assay, the test compound competed against a radiolabelled agonist for binding to the P2Y12 receptor, which is found on the surface of platelets. Inhibition of binding of the labeled material was measured and correlated to the amount and potency of the test compound. Data from this assay are presented in Table F. Platelet rich plasma (“PRP”) was obtained from the Interstate Blood bank, Memphis, Tenn. Platelet rich plasma was prepared from blood units collected in ACD ((prepared by (1) combining: 2.5 g sodium citrate (Sigma S-4641); 1.5 g citric acid (Sigma C-0706); and, 2.0 g dextrose (Sigma G-7528); (2) bringing pH to 4.5; and (3) adding water to bring volume to 100 mL) and using the light spin protocol; this protocol involves centrifugation at room temperature for approximately 20 minutes at speeds up to 160×g. Platelet rich plasma is supplied in units of approximately 200 ml. Each unit is distributed into four 50 mL polypropylene conical tubes for centrifugation, Blood from each donor is maintained separately.
The 50 mL tubes were centrifuged for 15 minutes at 1100 rpm in Sorvall RT6000D (with H1000B rotor). Internal centrifuge temperature was maintained at approximately room temperature (22-24° C.). This spin pelleted cellular components remaining from the PRP preparation. The supernatant was decanted into fresh 50 mL tubes. To avoid carry over of cellular components following the room temperature centrifugation, approximately 5 mL of PRP was left in the tube and discarded. The tubes were capped and inverted 2-3 times and allowed to stand at room temperature for at least 15 minutes following inversion.
Optionally, a Coulter Counter may be used to count platelets from the resting samples during the resting phase. Normal human platelet counts are expected to range from 200,000 to 400,000 per μL of PRP supernatant.
The 50 mL tubes containing PRP supernatant were centrifuged for 15 minutes at 2300-2400 rpm to loosely pellet the platelets. The supernatant from this spin was decanted immediately into a clean cell culture bottle (Corning bottle) and saved in case further centrifugation was needed. The pellet of each tube was resuspended in 2-4 mL of Wash buffer (pH 6.5) (1 L prepared new daily—134 mM NaCl (Sigma S-5150); 3 mM KCl (Sigma P-9333); 1 mM CaCl2 (JT Baker 1311-01); 2 mM MgCl2 (Sigma M-2670); 5 mM glucose (EM 4074-2); 0.3 mM NaH2PO4 (Sigma S-9638)/12 mM NaHCO3 (J T Baker 3506-01); 5 mM HEPES pH 7.4 (Gibco 12379-012); 0.35% BSA (Sigma A-7906); 330 mg Heparin (bovine lung, Sigma H-4898); and 30 mL of ACD) by repeated gentle aspiration using disposable polypropylene sample pipettes.
Wash buffer (pH 6.5) was added to each tube to bring the volume to approximately 40 mL. Each tube was incubated for at least 15 minutes at 37° C.
The tubes were then centrifuged again for 15 minutes at 2300-2400 rpm to loosely pellet the platelets. The supernatant was decanted and discarded. The pellet was resuspended in 2-4 mL of Assay buffer (pH 7.4) (1 L volume—134 mM NaCl; 3 mM KCl; 1 mM CaCl2; 2 mM MgCl2; 5 mM glucose; 0.3 mM NaH2PO4/12 mM NaHCO3; 5 mM HEPES pH 7.4; and 0.35% BSA) by repeated aspiration using disposable polypropylene sample pipettes.
The pooled platelet preparation was counted using a Coulter Counter. The final concentration of platelets was brought to 1×10^6 per μL using Assay buffer pH 7.4. The platelets were rested for a minimum of 45 minutes at 37° C. before use in the assay.
In one embodiment, the compounds were tested in 96-well microtiter filterplates (Millipore Multiscreen-FB opaque plates, #MAFBNOB50). These plates were used in the assay and pre-wet with 50 μL of Assay buffer pH 7.4 then filtered through completely with a Millipore plate vacuum. […]

T1 sequence (Q9H244 whole entry): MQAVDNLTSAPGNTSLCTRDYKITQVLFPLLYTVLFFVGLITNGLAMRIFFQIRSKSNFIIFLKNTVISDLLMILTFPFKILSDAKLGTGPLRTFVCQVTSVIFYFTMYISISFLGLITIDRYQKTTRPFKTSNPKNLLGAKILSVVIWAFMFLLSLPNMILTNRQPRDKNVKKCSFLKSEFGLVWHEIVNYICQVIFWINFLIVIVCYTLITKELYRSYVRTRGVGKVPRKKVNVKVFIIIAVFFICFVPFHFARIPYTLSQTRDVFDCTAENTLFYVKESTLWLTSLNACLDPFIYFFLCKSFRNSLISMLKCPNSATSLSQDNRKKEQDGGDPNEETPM

| SMILES | inhibition at 1 µM (P2Y12 receptor [1]) [%] | IC50 (P2Y12 receptor [2]) | Ki (P2Y12 receptor [2]) | [33P]-2MeS-ADP Binding to Recombinant Human P2Y12 Membranes (Assay 3) % Inhibition (P2Y12 receptor [2]) [%] | inhibition at 10 µM (P2Y12 receptor [2]) [%] | inhibition at 10 µM (P2Y12 receptor [3]) [%] | IC50 (P2Y12 receptor [3]) [nM] |
| --- | --- | --- | --- | --- | --- | --- | --- |
| CCc1cc2c(N3CCN(C(=O)Cc4ccccc4)CC3)nc(NCCO)nc2s1 [Example 11, 2-({6-Ethyl-4-[4-(phenylacetyl)piperazin-1-yl]thieno[2,3-d]pyrimidin-2-yl}amino)ethanol] | 51 | 1130 nM and 1190 nM and 905 nM | 650 nM and 687 nM and 905 nM | 82.93 | 76.7 |  |  |
| CCc1cc2c(N3CCN(C(=O)Cc4ccccc4)CC3)nc(NCc3cccc(F)c3)nc2s1 [Example 14, 6-Ethyl-N-(3-fluorobenzyl)-4-[4-(phenylacetyl)piperazin-1-yl]thieno[2,3-d]pyrimidin-2-amine] |  |  |  |  |  | 39.9 | > 10000 |
| CCc1cc2c(N3CCN(C(=O)Cc4ccccc4)CC3)nc(NCc3ccccc3)nc2s1 [Example 15, N-benzyl-6-ethyl-4-[4-(phenylacetyl)piperazin-1-yl]thieno[2,3-d]pyrimidin-2-amine] |  |  |  |  |  | 44 | > 10000 |
| CCc1cc2c(N3CCN(C(=O)c4ccc(-c5ccccc5)cc4)CC3)nc(NC[C@H](O)CO)nc2s1 [Example 26, (2S)-3-({4-[4-(1,1′-biphenyl-4-ylcarbonyl)piperazin-1-yl]-6-ethylthieno[2,3-]pyrimidin-2-yl}amino)propane-1,2-diol] | 90 | 20 nM and 61 nM and 47 nM | 10 nM and 35 nM and 27 nM | 94.85 | 98.6 |  |  |

More lines, now with the values ahead:

| inhibition at 1 µM (P2Y12 receptor [1]) [%] | IC50 (P2Y12 receptor [2]) | Ki (P2Y12 receptor [2]) | [33P]-2MeS-ADP Binding to Recombinant Human P2Y12 Membranes (Assay 3) % Inhibition (P2Y12 receptor [2]) [%] | inhibition at 10 µM (P2Y12 receptor [2]) [%] | inhibition at 10 µM (P2Y12 receptor [3]) [%] | IC50 (P2Y12 receptor [3]) [nM] | SMILES |
| --- | --- | --- | --- | --- | --- | --- | --- |
| 92 | 10 nM and 48 nM and 43 nM | 10 nM and 28 nM and 25 nM | 93.86 | 100 |  |  | CCc1cc2c(N3CCN(C(=O)c4ccc(-c5ccccc5)cc4)CC3)nc(NC[C@@H](O)CO)nc2s1 [Example 27, (2R)-3-({4-[4-(1,1′-biphenyl-4-ylcarbonyl)piperazin-1-yl]-6-ethylthieno[2,3-d]pyrimidin-2-yl}amino)propane-1,2-diol] |
| 89 | 68 nM and 50 nM and 132 nM | 36 nM and 30 nM and 76 nM | 93.19 | 97.3 |  |  | CCc1cc2c(N3CCN(C(=O)c4cccc(-c5ccccc5)c4)CC3)nc(NC[C@H](O)CO)nc2s1 [Example 29, (2S)-3-({4-[4-(1,1′-biphenyl-3-ylcarbonyl)piperazin-1-yl]-6-ethylthieno[2,3-d]pyrimidin-2-yl}amino)propane-1,2-diol] |
| 88 | 63 nM and 80 nM and 105 nM | 33 nM and 50 nM and 61 nM | 96.44 | 97.7 |  |  | CCc1cc2c(N3CCN(C(=O)c4cccc(-c5ccccc5)c4)CC3)nc(NC[C@@H](O)CO)nc2s1 [Example 30, (2R)-3-({4-[4-(1,1′-biphenyl-3-ylcarbonyl)piperazin-1-yl]-6-ethylthieno[2,3-d]pyrimidin-2-yl}amino)propane-1,2-diol] |
| 93 | 21 nM | 12 nM |  |  |  |  | CCc1cc2c(N3CCN(C(=O)c4ccc(-c5ccccc5)cc4)CC3)nc(NC(CO)CO)nc2s1 [Example 31, 2-({4-[4-(1,1′-biphenyl-4-ylcarbonyl)piperazin-1-yl]-6-ethylthieno[2,3-d]pyrimidin-2-yl}amino)propane-1,3-diol] |

From US20080194590A1, “4-Piperazinylthieno [2,3-D] Pyrimidine Compounds as Platelet Aggregation Inhibitors” (Pfizer Inc, priority 2005, published 2008)
